Measured values reported in patent US20130096067A1, “DROSOPHILA TUMOR STEM CELL MODEL AND USES THEREOF” (priority 2011, published 2013).
Values joined by “and” are separate entries in the source; they are usually repeats but may differ in a detail not shown here. Equal entries are not always repeated. Peptide text beside a SMILES is read from it. * marks the point of attachment. Cbz = O=C(OCc1ccccc1)*

Tested on: Raf-1^gof intestinal tumors
Settings: for Log2 (fold) (luciferase activity, log2 of the fold difference relative to DMSO controls) / Fold (luciferase activity, fold difference relative to DMSO controls): screen of 480 ICCB compounds in vials, compounds fed to flies with one-day old Raf-1^gof tumors, esg-Gal4 luciferase; for Log2 (fold) (luciferase activity, log2 of the fold difference relative to DMSO controls) / Fold (luciferase activity, fold difference relative to DMSO controls) / Log2 (fold) of luciferase activity relative to DMSO controls / Fold (luciferase activity relative to DMSO controls): assessed three days later; for Fold (luciferase activity, fold difference relative to DMSO controls) / Fold (luciferase activity relative to DMSO controls): averaged from multiple wells; for Log2 (fold) of luciferase activity relative to DMSO controls / Fold (luciferase activity relative to DMSO controls): ICCB compounds fed in vials to flies with one-day old Raf-1^gof tumors; for Fold: Table 3 summary of hits, Screen ICCB, luciferase relative to DMSO, fed three consecutive days in vials
For Fold (luciferase activity relative to DMSO controls) in this document: test concentration or dose not given here.
For Fold (luciferase activity, fold difference relative to DMSO controls) in this document: test concentration or dose not given here.
For Log2 (fold) (luciferase activity, log2 of the fold difference relative to DMSO controls) in this document: test concentration or dose not given here.
For Log2 (fold) of luciferase activity relative to DMSO controls in this document: test concentration or dose not given here.

Molecule	Log2 (fold) (luciferase activity, log2 of the fold difference relative to DMSO controls)	Fold (luciferase activity, fold difference relative to DMSO controls)	Log2 (fold) of luciferase activity relative to DMSO controls	Fold (luciferase activity relative to DMSO controls) [fold]	Fold [fold]
PROSTAGLANDIN J2	−0.525	0.695	–	–	–
CC1(O)CC23CC(O)C4(O)C(CC(O)C4(C)C)C(C)(O)C2CCC1C3O (stereo not drawn) [GR[…]]	−0.553	0.682	–	–	–
CCCCCCCC/C=C\CCCCCCCC(=O)OCC(CO)OC(=O)CCCCCCC/C=C\CCCCCCCC (stereo not drawn) [1,2-DIOLEOYL-GLYCEROL (18:1)]	–	–	0.443	1.359	–
O=C[C@@H]1CCCN1C(=O)[C@@H]1CCCN1C(=O)OCc1ccccc1 [Z-prolyl-prolinal] (Cbz-Pro-Pro-aldehyde)	−0.692	0.619	–	–	–
Oc1ccc(-c2nc(-c3ccc(F)cc3)c(-c3ccncc3)[nH]2)cc1 [SB 202190]	−0.222	0.857	–	–	–
O[C@H]1[C@H](O)[C@@H](O)CN2CC[C@H](O)[C@H]12 [castanospermine]	−0.351	0.784	–	–	–
C=C[C@H]1C[N@@]2CC[C@H]1C[C@H]2[C@H](O)c1ccnc2ccc(OC)cc12 [QUININE]	–	–	−0.201	0.870	–
O=C(O)c1ccccc1Nc1ccccc1	−0.355	0.782	–	–	–
CCCCC/C=C\C/C=C\C/C=C\C/C=C\CCCC(=O)O[C@@H](CO)COC(=O)CCCCCCCCCCCCCCCCC [1-STEAROYL-2-ARACHIDONOYL-GLYCEROL]	−0.532	0.692	–	–	–
CCCCCCCCCCCCCCCC(=O)OCC(COP(=O)(O)O)OC(=O)CCCCCCCCCCCCCCC (stereo not drawn) [PHOSPHATIDIC ACID, DIPALMITOYL]	−0.288	0.819	–	–	–
CC[C@H](C)C(=O)O[C@H]1C[C@@H](C)C=C2C=C[C@H](C)[C@H](CC[C@@H]3C[C@@H](O)CC(=O)O3)[C@H]21 [Mevinolin (lovastatin)]	−0.512	0.701	–	–	–
COC(=O)C1=C(C)NC(C)=C([N+](=O)[O-])C1c1ccccc1C(F)(F)F (stereo not drawn) [BAY K-8644]	–	–	−0.027	0.982	–
COc1c(C)c2c(c(O)c1C/C=C(\C)CCC(=O)O)C(=O)OC2 [Mycophenolic acid]	−0.577	0.670	–	–	–
COc1c(C=O)c(O)cc2c1C(=O)c1ccccc1C2=O [damnacanthal]	−0.482	0.716	–	–	–
COC[C@@H]([C@H](O)[C@H](O)C(=O)NCC[C@H](C)c1nc(/C=C/C[C@@H]2O[C@]3(C[C@@H](O)[C@@H]2C)O[C@H]([C@H](C[C@H](O)[C@H](C)[C@H](O)[C@H](C)/C=C(C)/C(C)=C/C=C/C(C)=C\C#N)OC)[C@H](OP(=O)(O)O)C3(C)C)co1)N(C)C [calyculin A, reference compound]	−1.276	0.413	–	–	0.413
C#CCCCCCCCCCCCCCCCC(=O)O [17-OCTADECYNOIC ACID]	−0.358	0.780	–	–	–

Molecule	Log2 (fold) (luciferase activity, log2 of the fold difference relative to DMSO controls)	Fold (luciferase activity, fold difference relative to DMSO controls)	Log2 (fold) of luciferase activity relative to DMSO controls	Fold (luciferase activity relative to DMSO controls) [fold]	Fold [fold]
C=C1/C(=C\C=C2/CCC[C@]3(C)[C@@H]([C@H](C)CCCC(C)(C)O)CC[C@@H]23)C[C@@H](O)C[C@@H]1O [1,25-DIHYDROXYVITAMIN D3]	–	–	0.677	1.599	–
CCCCCCCCCCCCCCCCOCC(COP(=O)([O-])OCC[N+](C)(C)C)OC(C)=O (stereo not drawn) [ENANTIO-PAF C16]	–	–	−0.051	0.965	–
Clc1cccc(Cl)c1N=C1NCCN1 [clonidine]	–	–	0.087	1.062	–
CC(C)C[C@@H](/C=C/S(C)(=O)=O)NC(=O)[C@H](CC(C)C)NC(=O)[C@H](CC(C)C)NC(=O)OCc1ccccc1 [ZL3VS]	−0.513	0.701	–	–	–
C/C1=C/C(=O)O[C@@H]2C[C@@H](CC[C@H](C)/C=C\CC1)O[C@@](O)([C@@H]1CSC(=O)N1)C2 [Latrunculin B, reference compound]	−1.064	0.478	–	–	0.478
COc1ccc(C[C@H]2NC[C@H](O)[C@H]2OC(C)=O)cc1 [anisomycin]	–	–	−0.148	0.902	–
CC/C=C\C/C=C\C/C=C\CCCCCCCCCCCC(=O)O [DOCOSATRIENOIC ACID (22:3 n-3)]	–	–	−0.055	0.963	–
COc1cc(/C=C/C(=O)CC(=O)/C=C/c2ccc(O)c(OC)c2)ccc1O [Curcumin]	–	–	0.112	1.081	–
CCCCCCCC/C=C\CCCCCCCC(=O)OCC(CO)OC(C)=O (stereo not drawn) [1-OLEOYL-2-ACETYL-GLYCEROL]	−0.727 and −0.716	0.604 and 0.609	–	–	–
CCCCCCCC/C=C\CCCCCCCC(N)=O [9,10-OCTADECENOAMIDE]	−0.454	0.730	–	–	–
O=C(O)c1ccc(/C2=C3\C=CC(=N3)/C(c3ccc(C(=O)O)cc3)=c3/cc/c4[n]3[Mn]([Cl])[n]3c2ccc3/C(c2ccc(C(=O)O)cc2)=C2/C=CC(=N2)\C=4c2ccc(C(=O)O)cc2)cc1 [MnTBAP]	−0.245	0.844	–	–	–
Cc1c(C(=O)c2cccc3ccccc23)c2cccc3c2n1[C@H](CN1CCOCC1)CO3 [WIN 55,212-2]	−0.305	0.810	–	–	–
C/C(=C\c1ccc(C(=O)O)cc1)c1ccc2c(c1)C(C)(C)CCC2(C)C [TTNPB]	–	–	−0.114	0.924	–
C/C=C/C/C=C/CCC(=O)[C@H]1O[C@H]1C(N)=O [Cerulenin]	−0.474	0.720	–	–	–
O=C(O)c1cc([N+](=O)[O-])ccc1NCCCc1ccccc1 [NPPB]	−0.439	0.738	–	–	–
Clc1ccc(C2CC3CCC2N3)cn1 (racemic) [epibatidine (+/−)]	−0.457	0.729	–	–	–
